SMILES strings stand for the structures.

The target of one test is T1, human RET kinase (Homo sapiens, UniProt P07949).
T1 construct: purchased Carna 08-159
Put plainly: RET Kinase Assay (LanthaScreen TR-FRET enzymatic assay). It is filed as biochemical. The following applies: 7 nM RET, 23 μM ATP. The procedure, abridged: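 TR-FRET enzymatic read-out using 23 μM ATP, 3 μM FAM-P2 substrate and 7 nM human RET, after 15-min compound pretreatment at room temperature and a 1 h reaction at 28° C in HEPES pH 7.5 buffer. Percent of DMSO control fitted to nonlinear sigmoid curves for IC50.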
A general note: Time-resolved FRET reads energy transfer from a long-lived donor to a nearby acceptor.

Another test concerns the target T2, human KDR kinase (Homo sapiens, UniProt P35968).
T2 construct: purchased Carna 08-191
Nature of the test: KDR Kinase Assay (LanthaScreen TR-FRET enzymatic assay). The note with it: 1.2 nM KDR, 92 μM ATP. It is filed as biochemical. The method, boiled down:
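TR-FRET enzymatic format: after 15-min room-temperature compound pretreatment, 1.2 nM human KDR phosphorylated 3 μM FAM-P22 with 92 μM ATP (HEPES pH 7.5, 28° C., one hour). Reactions were quenched with EDTA buffer. IC50 came from nonlinear sigmoid fits of percent-of-vehicle signal ratios.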

In a further test the test system is TT cells. Nature of the test: TT Cell Proliferation Assay (WST-8, 8 days). It is filed as cell-based. The following applies: Homo sapiens, TT, 192 h, growth inhibition in TT cells, read-out: TT Cellular Activity. The procedure, abridged: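 IC50 was derived from absorbance at 450 nm after 5 h with WST-8, following 8 days' incubation at 37 °C. Final compound levels spanned 0.0005–5 μM in 0.5% DMSO. TT cells were seeded at 6,000 per well in 10% FBS RPMI-1640 and left to attach for 24 h beforehand.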

T2 sequence (P35968 20-1356): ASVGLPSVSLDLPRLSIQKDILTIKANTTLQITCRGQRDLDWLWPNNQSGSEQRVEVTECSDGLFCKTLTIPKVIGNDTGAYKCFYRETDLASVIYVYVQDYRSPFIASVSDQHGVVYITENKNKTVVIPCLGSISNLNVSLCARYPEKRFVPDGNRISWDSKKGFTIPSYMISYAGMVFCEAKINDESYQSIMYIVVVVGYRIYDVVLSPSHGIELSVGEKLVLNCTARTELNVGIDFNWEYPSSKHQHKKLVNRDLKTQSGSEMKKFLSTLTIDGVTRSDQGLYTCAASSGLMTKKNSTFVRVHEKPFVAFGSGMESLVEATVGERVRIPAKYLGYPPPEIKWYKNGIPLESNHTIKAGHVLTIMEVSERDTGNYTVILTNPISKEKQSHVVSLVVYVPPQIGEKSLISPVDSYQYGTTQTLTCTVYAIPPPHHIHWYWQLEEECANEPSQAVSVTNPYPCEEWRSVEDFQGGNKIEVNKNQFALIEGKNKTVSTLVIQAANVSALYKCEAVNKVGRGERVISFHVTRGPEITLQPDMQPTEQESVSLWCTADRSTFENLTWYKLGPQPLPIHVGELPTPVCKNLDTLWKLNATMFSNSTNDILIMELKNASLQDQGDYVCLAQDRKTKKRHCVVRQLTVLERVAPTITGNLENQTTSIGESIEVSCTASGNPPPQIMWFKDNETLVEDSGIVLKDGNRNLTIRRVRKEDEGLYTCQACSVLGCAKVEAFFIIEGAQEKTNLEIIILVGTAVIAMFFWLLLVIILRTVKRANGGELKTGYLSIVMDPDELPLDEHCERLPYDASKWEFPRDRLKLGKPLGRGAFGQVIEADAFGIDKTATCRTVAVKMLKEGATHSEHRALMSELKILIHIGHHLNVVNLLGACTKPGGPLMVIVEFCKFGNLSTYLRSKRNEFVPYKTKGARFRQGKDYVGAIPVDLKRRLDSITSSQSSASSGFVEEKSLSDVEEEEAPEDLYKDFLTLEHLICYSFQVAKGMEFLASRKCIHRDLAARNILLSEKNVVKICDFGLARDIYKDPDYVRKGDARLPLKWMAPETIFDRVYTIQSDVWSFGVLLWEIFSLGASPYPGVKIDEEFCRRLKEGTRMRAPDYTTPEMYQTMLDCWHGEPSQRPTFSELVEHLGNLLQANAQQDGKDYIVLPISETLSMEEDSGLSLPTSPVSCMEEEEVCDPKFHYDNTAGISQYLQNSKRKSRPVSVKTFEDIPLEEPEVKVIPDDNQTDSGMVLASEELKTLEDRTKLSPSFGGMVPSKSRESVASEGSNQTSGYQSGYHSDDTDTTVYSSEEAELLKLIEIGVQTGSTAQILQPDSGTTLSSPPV
T1 sequence (P07949 29-1114): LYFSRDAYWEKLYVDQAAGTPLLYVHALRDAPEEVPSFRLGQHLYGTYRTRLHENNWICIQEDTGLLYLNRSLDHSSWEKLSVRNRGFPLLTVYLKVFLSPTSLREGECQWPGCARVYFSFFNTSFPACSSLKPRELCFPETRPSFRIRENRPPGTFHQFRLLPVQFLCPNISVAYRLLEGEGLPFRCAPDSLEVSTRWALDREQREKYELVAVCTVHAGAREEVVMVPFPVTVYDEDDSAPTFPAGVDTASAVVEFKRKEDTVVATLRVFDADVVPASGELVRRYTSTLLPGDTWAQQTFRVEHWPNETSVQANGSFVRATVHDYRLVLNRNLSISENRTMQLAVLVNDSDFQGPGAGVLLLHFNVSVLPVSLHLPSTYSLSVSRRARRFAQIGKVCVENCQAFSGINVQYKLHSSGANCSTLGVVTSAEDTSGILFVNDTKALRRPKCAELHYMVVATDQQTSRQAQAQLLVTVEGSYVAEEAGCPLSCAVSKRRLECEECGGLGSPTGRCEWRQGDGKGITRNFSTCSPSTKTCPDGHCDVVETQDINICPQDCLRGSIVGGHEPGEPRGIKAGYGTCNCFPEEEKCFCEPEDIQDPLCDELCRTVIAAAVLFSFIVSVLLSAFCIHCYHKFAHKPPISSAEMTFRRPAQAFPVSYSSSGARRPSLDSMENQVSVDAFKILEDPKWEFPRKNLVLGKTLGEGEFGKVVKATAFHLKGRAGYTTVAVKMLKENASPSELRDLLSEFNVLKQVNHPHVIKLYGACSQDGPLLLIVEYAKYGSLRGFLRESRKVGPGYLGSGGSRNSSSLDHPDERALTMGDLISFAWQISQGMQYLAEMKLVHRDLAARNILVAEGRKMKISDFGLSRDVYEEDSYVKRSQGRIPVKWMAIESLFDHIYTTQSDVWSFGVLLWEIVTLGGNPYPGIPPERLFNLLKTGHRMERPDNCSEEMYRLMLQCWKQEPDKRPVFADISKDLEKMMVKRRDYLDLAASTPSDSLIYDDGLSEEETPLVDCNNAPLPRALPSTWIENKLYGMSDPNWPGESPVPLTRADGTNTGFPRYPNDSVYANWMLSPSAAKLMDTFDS

Take `Cn1cc(-c2cc(-c3ccc(N4C[C@@H]5[C@H](C4)[C@@H]5NS(=O)(=O)c4c(F)cccc4Cl)nc3)c3c(C#N)cnn3c2)cn1` [Example 35, 2-chloro-N-((1R,5S,6r)-3-(5-(3-cyano-6-(1-methyl-1H-pyrazol-4-yl)pyrazolo[1,5-a]pyridin-4-yl)pyridin-2-yl)-3-azabicyclo[3.1.0]hexan-6-yl)-6-fluorobenzenesulfonamide]: the IC50 at human RET kinase was not above 10 nM; against human KDR kinase, 10 to 50 nM; in the test on TT cells, 10 to 50 nM.

Turning to `Cn1cc(-c2cc(-c3ccc(N4C[C@@H]5[C@H](C4)[C@@H]5NC(=O)Nc4ccccc4)nc3)c3c(C#N)cnn3c2)cn1` [Example 36, 1-((1R,5S,6r)-3-(5-(3-cyano-6-(1-methyl-1H-pyrazol-4-yl)pyrazolo[1,5-a]pyridin-4-yl)pyridin-2-yl)-3-azabicyclo[3.1.0]hexan-6-yl)-3-phenylurea], the IC50 at human RET kinase was not above 10 nM; on human KDR kinase, not above 10 nM; in the test with TT cells, 10 to 50 nM.

For the molecule `COc1cc(-c2ccc(N3C[C@@H]4[C@H](C3)[C@H]4NC(=O)c3ncccc3Cl)nc2)c2c(C#N)cnn2c1` [Example 39, 3-chloro-N-((1R,5S,6s)-3-(5-(3-cyano-6-methoxypyrazolo[1,5-a]pyridin-4-yl)pyridin-2-yl)-3-azabicyclo[3.1.0]hexan-6-yl)picolinamide], the IC50 at human RET kinase is 50 to 100 nM; against human KDR kinase, more than 100 nM; with TT cells, more than 100 nM.

As to `CC(C)(O)COc1cc(-c2ccc(N3C[C@@H]4[C@H](C3)[C@H]4NC(=O)[C@H](O)c3ccccc3)nc2)c2c(C#N)cnn2c1` [Example 40, (R)-N-((1R,5S,6s)-3-(5-(3-cyano-6-(2-hydroxy-2-methylpropoxy)pyrazolo[1,5-a]pyridin-4-yl)pyridin-2-yl)-3-azabicyclo[3.1.0]hexan-6-yl)-2-hydroxy-2-phenylacetamide], the IC50 against human RET kinase is 10 to 50 nM; at human KDR kinase, more than 100 nM; with TT cells, 50 to 100 nM.

As for `CCOc1cc(-c2cnc(N3C[C@@H]4[C@H](C3)[C@@H]4NC(=O)c3ncccc3Cl)cn2)c2c(C#N)cnn2c1` [Example 41, 3-chloro-N-((1R,5S,6r)-3-(5-(3-cyano-6-ethoxypyrazolo[1,5-a]pyridin-4-yl)pyrazin-2-yl)-3-azabicyclo[3.1.0]hexan-6-yl)picolinamide], the IC50 at human RET kinase, against human KDR kinase and in the test with TT cells was more than 100 nM each time.

As for `CCOc1cc(-c2cnc(N3C[C@@H]4[C@H](C3)[C@H]4NC(=O)c3ncccc3Cl)cn2)c2c(C#N)cnn2c1` [Example 42, 3-chloro-N-((1R,5S,6s)-3-(5-(3-cyano-6-ethoxypyrazolo[1,5-a]pyridin-4-yl)pyrazin-2-yl)-3-azabicyclo[3.1.0]hexan-6-yl)picolinamide], the IC50 is 50 to 100 nM against human RET kinase, more than 100 nM against human KDR kinase and more than 100 nM in the test on TT cells.

Regarding `CC(C)(O)COc1cc(-c2ccc(N3C[C@@H]4[C@H](C3)[C@@H]4NC(=O)c3ncccc3Cl)nc2)c2c(C#N)cnn2c1` [Example 44, 3-chloro-N-((1R,5S,6r)-3-(5-(3-cyano-6-(2-hydroxy-2-methylpropoxy)pyrazolo[1,5-a]pyridin-4-yl)pyridin-2-yl)-3-azabicyclo[3.1.0]hexan-6-yl)picolinamide], the IC50 at human RET kinase is 50 to 100 nM; against human KDR kinase it was more than 100 nM; in the test with TT cells, more than 100 nM.

Turning to `COc1ccc(NC(=O)N[C@H]2[C@@H]3CN(c4ccc(-c5cc(-c6cnn(C)c6)cn6ncc(C#N)c56)cn4)C[C@@H]32)cn1` [Example 45, 1-((1R,5S,6s)-3-(5-(3-cyano-6-(1-methyl-1H-pyrazol-4-yl)pyrazolo[1,5-a]pyridin-4-yl)pyridin-2-yl)-3-azabicyclo[3.1.0]hexan-6-yl)-3-(6-methoxypyridin-3-yl)urea], the IC50 at human RET kinase is not above 10 nM; on human KDR kinase, not above 10 nM; with TT cells, 50 to 100 nM.

Consider `CC(C)(O)COc1cc(-c2ccc(N3C[C@@H]4[C@H](C3)[C@H]4NS(=O)(=O)c3c(F)cccc3Cl)nc2)c2c(C#N)cnn2c1` [Example 47, 2-chloro-N-((1R,5S,6s)-3-(5-(3-cyano-6-(2-hydroxy-2-methylpropoxy)pyrazolo[1,5-a]pyridin-4-yl)pyridin-2-yl)-3-azabicyclo[3.1.0]hexan-6-yl)-6-fluorobenzene-sulfonamide], for which the IC50 was not above 10 nM at human RET kinase, 10 to 50 nM against human KDR kinase and 10 to 50 nM in the test with TT cells.

For `CCOc1cc(-c2cnc(N3C[C@H]4C[C@H](NC(=O)c5ncccc5Cl)C[C@H]4C3)cn2)c2c(C#N)cnn2c1` [Example 50, 3-chloro-N-((3aR,5s,6aS)-2-(5-(3-cyano-6-ethoxypyrazolo[1,5-a]pyridin-4-yl)pyrazin-2-yl)octahydrocyclopenta[c]pyrrol-5-yl)picolinamide], the results for the IC50 against human RET kinase, on human KDR kinase and with TT cells were not above 10 nM, more than 100 nM and 10 to 50 nM, respectively.

With `COc1cc(-c2ccc(N3C[C@@H]4C[C@@](C)(NC(=O)c5ncccc5Cl)C[C@@H]4C3)nc2)c2c(C#N)cnn2c1` [Example 52, 3-chloro-N-((3aR,5s,6aS)-2-(5-(3-cyano-6-methoxypyrazolo[1,5-a]pyridin-4-yl)pyridin-2-yl)-5-methyloctahydro-cyclopenta[c]pyrrol-5-yl)picolinamide], the IC50 against human RET kinase was not above 10 nM; against human KDR kinase it was 50 to 100 nM; in the test on TT cells, 10 to 50 nM.

Turning to `Cn1cc(-c2cc(-c3ccc(N4C[C@@H]5C[C@@](C)(NC(=O)c6c(F)cccc6Cl)C[C@@H]5C4)nc3)c3c(C#N)cnn3c2)cn1` [Example 57, 2-chloro-N-((3aR,5s,6aS)-2-(5-(3-cyano-6-(1-methyl-1H-pyrazol-4-yl)pyrazolo[1,5-a]pyridin-4-yl)pyridin-2-yl)-5-methyloctahydro-cyclopenta[c]pyrrol-5-yl)-6-fluorobenzamide], the IC50 was 10 to 50 nM against human RET kinase, more than 100 nM on human KDR kinase and not above 10 nM in the test on TT cells.

For the molecule `COc1ccc(C(=O)N[C@]2(C)C[C@H]3CN(c4ccc(-c5cc(-c6cnn(C)c6)cn6ncc(C#N)c56)cn4)C[C@H]3C2)cn1` [Example 58, N-((3aR,5s,6aS)-2-(5-(3-cyano-6-(1-methyl-1H-pyrazol-4-yl)pyrazolo[1,5-a]pyridin-4-yl)pyridin-2-yl)-5-methyloctahydro-cyclopenta[c]pyrrol-5-yl)-6-methoxy-nicotinamide], the IC50 on human RET kinase was not above 10 nM; against human KDR kinase it was not above 10 nM; in the test on TT cells, 10 to 50 nM.

On to `Cn1cc(-c2cc(-c3ccc(N4C[C@@H]5C[C@@](C)(NS(=O)(=O)c6c(F)cccc6Cl)C[C@@H]5C4)nc3)c3c(C#N)cnn3c2)cn1` [Example 59, 2-chloro-N-((3aR,5s,6aS)-2-(5-(3-cyano-6-(1-methyl-1H-pyrazol-4-yl)pyrazolo[1,5-a]pyridin-4-yl)pyridin-2-yl)-5-methyloctahydrocyclopenta[c]pyrrol-5-yl)-6-fluorobenzenesulfonamide], for which the IC50 against human RET kinase, at human KDR kinase and in the test with TT cells was not above 10 nM in each case.

Regarding `CCOc1cc(-c2cnc(N3C[C@@H]4C[C@@](C)(NC(=O)c5ncccc5Cl)C[C@@H]4C3)cn2)c2c(C#N)cnn2c1` [Example 60, 3-chloro-N-((3aR,5s,6aS)-2-(5-(3-cyano-6-ethoxypyrazolo[1,5-a]pyridin-4-yl)pyrazin-2-yl)-5-methyloctahydrocyclopenta[c]pyrrol-5-yl)picolinamide], the results for the IC50 against human RET kinase, at human KDR kinase and with TT cells were not above 10 nM, more than 100 nM and 10 to 50 nM, respectively.

`CCOc1cc(-c2ccc(N3C[C@@H]4C[C@@](C)(NC(=O)CC(C)C)C[C@@H]4C3)nc2)c2c(C#N)cnn2c1` [Example 62, N-((3aR,5s,6aS)-2-(5-(3-cyano-6-ethoxypyrazolo[1,5-a]pyridin-4-yl)pyridin-2-yl)-5-methyloctahydrocyclopenta[c]pyrrol-5-yl)-3-methylbutanamide]: the IC50 on human RET kinase was not above 10 nM; against human KDR kinase, 50 to 100 nM; in the test with TT cells, 10 to 50 nM.

Take `CCOc1cc(-c2ccc(N3C[C@@H]4C[C@@](C)(NC(=O)c5c(C)cccc5Cl)C[C@@H]4C3)nc2)c2c(C#N)cnn2c1` [Example 63, 2-chloro-N-((3aR,5s,6aS)-2-(5-(3-cyano-6-ethoxypyrazolo[1,5-a]pyridin-4-yl)pyridin-2-yl)-5-methyloctahydrocyclopenta[c]pyrrol-5-yl)-6-methylbenzainide]: the IC50 is not above 10 nM on human RET kinase, 50 to 100 nM on human KDR kinase and 10 to 50 nM in the test on TT cells.

In the case of `CCOc1cc(-c2ccc(N3C[C@@H]4C[C@@](C)(NC(=O)c5ncc(F)cc5Cl)C[C@@H]4C3)nc2)c2c(C#N)cnn2c1` [Example 64, 3-chloro-N-((3aR,5s,6aS)-2-(5-(3-cyano-6-ethoxypyrazolo[1,5-a]pyridin-4-yl)pyridin-2-yl)-5-methyloctahydrocyclopenta[c]pyrrol-5-yl)-5-fluoropicolinamide], the IC50 on human RET kinase was not above 10 nM; against human KDR kinase, 10 to 50 nM; with TT cells, 50 to 100 nM.

Source of the values: patent publication US20220220128A1, “HETEROCYCLIC COMPOUNDS AS KINASE INHIBITORS, COMPOSITIONS COMPRISING THE HETEROCYCLIC COMPOUND, AND METHODS OF USE THEREOF” (JS Innopharm (Shanghai) Ltd, priority 2019, published 2022).
